Numbered stars: 1 amine (or outer) side, 2 acyl side, 3 side chain; on linkers, the order of the positions; unused ones are H or OH. Bridge positions count the residues as written; N and C are the ends. Side chains are listed from the residue outwards. Peptide text beside a SMILES is read from it. * marks the point of attachment. C20 diacid = O=C(O)CCCCCCCCCCCCCCCCCCC(=O)*; γGlu = O=C(O)[C@H](CCC(=O)[*:2])N[*:1]
Legend:
[1] = target: T1, human amylin receptor (Homo sapiens, UniProt O60896+P30988); test: Assay (V) binding to the human amylin receptor (SPA, 125I-rat amylin); settings: for IC50: human amylin receptor membranes, SPA, read-out: hAmylin-R bind IC50
T1 construct: expressed in transfected cells
T1 sequence (P30988 25-474): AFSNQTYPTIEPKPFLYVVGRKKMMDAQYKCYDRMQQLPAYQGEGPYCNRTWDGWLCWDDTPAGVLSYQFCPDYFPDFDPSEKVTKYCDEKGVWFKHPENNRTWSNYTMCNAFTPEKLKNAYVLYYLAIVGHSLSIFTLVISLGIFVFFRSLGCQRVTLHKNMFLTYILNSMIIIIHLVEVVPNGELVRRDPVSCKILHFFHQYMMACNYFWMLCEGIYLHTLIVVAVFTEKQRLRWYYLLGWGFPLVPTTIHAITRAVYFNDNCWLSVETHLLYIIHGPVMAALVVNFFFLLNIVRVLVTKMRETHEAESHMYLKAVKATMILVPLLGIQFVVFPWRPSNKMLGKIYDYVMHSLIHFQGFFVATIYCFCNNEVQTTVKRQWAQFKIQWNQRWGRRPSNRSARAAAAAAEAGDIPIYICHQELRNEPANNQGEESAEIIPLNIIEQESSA
T1 sequence (O60896 24-148 partner): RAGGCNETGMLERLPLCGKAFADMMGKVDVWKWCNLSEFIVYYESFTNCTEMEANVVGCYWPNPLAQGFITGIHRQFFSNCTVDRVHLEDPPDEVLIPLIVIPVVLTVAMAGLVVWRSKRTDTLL
In short: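 SPA competition binding on membranes from Amylin 3(a)/CRE-luc cells, 35 ng/μL membranes with 0.05 mg/well beads. Buffer 50 mM Hepes pH 7.4, 1 mM CaCl2, 5 mM MgCl2, 0.1% OA, 0.02% Tween20. IC50 from one-site competition fit as affinity measure.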

[2] = target: T2, human amylin receptor (amylin 3(a) receptor: human calcitonin receptor + RAMP-3) (Homo sapiens, UniProt O60896+P30988); test: Assay (II)a functional assay, human amylin receptor (CRE luciferase, BHK cells); assay type: cell-based; settings: for EC50: functional assay, human amylin receptor, read-out: hAmylin-R funct. EC50
T2 construct: expressed in transfected cells
T2 sequence (P30988 25-474): T1 sequence (P30988 25-474)
T2 sequence (O60896 24-148 partner): T1 sequence (O60896 24-148 partner)
Method: Assay (II)—Functional Assays
Consequently, transcription is activated by promoters containing multiple copies of the cAMP response element (CRE).
The cell line was further transfected with RAMP-3, using standard methods.
After incubation overnight at 37° C. and 5% CO2, the growth medium was replaced by 50 μl/well assay medium (DMEM (without phenol red), Glutamax™, 10% FBS, and 10 mM Hepes, pH 7.4). Further, 50 μl/well of standard or sample in assay buffer were added. After 3 hours incubation at 37° C. and 5% CO2, the assay medium with standard or sample were removed and replaced by 100 μl/well PBS. Further, 100 μl/well LucLite™ was added. The plates were sealed and incubated at room temperature for 30 minutes. Finally, luminescence was measured on a TopCounter (Packard) in SPC (single photon counting) mode.

[3] = target: T3, human calcitonin receptor (Homo sapiens, UniProt P30988); test: Assay (VII) binding to the human calcitonin receptor (SPA, 125I-Calcitonin); settings: read-out: hCTR bind IC50;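 further: cell membranes coupled to SPA beads, competitive displacement read by scintillation counting, IC50 derived from a one-site competition fit as a measure of receptor affinity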
T3 construct: expressed in transfected cells
T3 sequence (P30988 25-474): T1 sequence (P30988 25-474)

[4] = target: T3, human calcitonin receptor; test: Assay (II)a functional assay, human calcitonin receptor (CRE luciferase, BHK cells);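 further: luminescence from a CRE-driven luciferase reporter, read by single photon counting after cells were exposed to test samples for 3 h at 37 °C under 5% CO2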; assay type: cell-based; settings: read-out: hCTR funct. EC50
[5] = Table 6, human functional selectivity (hCTR EC50 / hAmylin-R EC50)

Row | Structure (SMILES) | IC50 [1] [nM] | Ratio hCT/hAmylin funct. [2, 5] | EC50 [2] [nM] | IC50 [3] [nM] | EC50 [4] [nM] | Ratio hCT/hAmylin funct. ([2]; Table 6a, human functional selectivity (hCTR EC50 / hAmylin-R EC50), at least 5) | Ratio hCT/hAmylin funct. ([2]; Table 6j, hCTR funct. EC50 / hAmylin-R funct. EC50) | Ratio hCT/hAmylin funct. ([2]; Table 6k, hCTR funct. EC50 / hAmylin-R funct. EC50) | Ratio hCT/hAmylin binding ([1]; Table 7b, human calcitonin receptor binding IC50 divided by human amylin receptor binding IC50) | Ratio hCT/hAmylin binding ([1]; Table 7c, human calcitonin receptor binding IC50 divided by human amylin receptor binding IC50) | Ratio hCT/hAmylin binding ([1]; human binding ratio, included for comparison)
1 | CC[C@H](C)[C@H](NC(=O)[C@H](C)NC(=O)CNC(=O)[C@H](Cc1ccccc1)NC(=O)[C@H](CC(N)=O)NC(=O)[C@@H]1CCCN1C(=O)[C@H](CO)NC(=O)[C@H](CO)NC(=O)[C@H](Cc1c[nH]cn1)NC(=O)[C@H](CCCNC(=N)N)NC(=O)[C@H](CC(C)C)NC(=O)[C@H](Cc1ccccc1)NC(=O)[C@H](CCC(=O)O)NC(=O)[C@H](C)NC(=O)[C@H](CC(C)C)NC(=O)[C@H](CCCNC(=N)N)NC(=O)[C@H](CCC(N)=O)NC(=O)[C@@H](NC(=O)[C@H](C)NC(=O)[C@@H]1CSSC[C@H](NC(=O)[C@H](CCCCN)NC(=O)CC[C@H](NC(=O)CCCCCCCCCCCCCCCCCCC(=O)O)C(=O)O)C(=O)N[C@@H](CC(N)=O)C(=O)N[C@@H]([C@@H](C)O)C(=O)N[C@@H](C)C(=O)N[C@@H]([C@@H](C)O)C(=O)N1)[C@@H](C)O)C(=O)N1CCC[C@H]1C(=O)N[C@@H](CO)C(=O)N[C@@H](CO)C(=O)N[C@H](C(=O)N[C@@H](CC(N)=O)C(=O)N[C@H](C(=O)NCC(=O)N[C@@H](CO)C(=O)N[C@@H](CCC(=O)O)C(=O)N[C@H](C(=O)N[C@@H](Cc1ccc(O)cc1)C(N)=O)[C@@H](C)O)C(C)C)[C@@H](C)O [Example 22] ({C20 diacid-γGlu}-KCNTATCATQRLAEFLRHSSPNFGAIPSSTNVGSETY-NH2; disulfide 2-7) | 0.794 | 3.8 | 0.27 | 9.73 | 1.03 | – | – | – | – | – | –
2 | CC[C@H](C)[C@H](NC(=O)[C@H](C)NC(=O)CNC(=O)[C@H](Cc1ccccc1)NC(=O)[C@H](CC(N)=O)NC(=O)[C@@H]1CCCN1C(=O)[C@H](CO)NC(=O)[C@H](CO)NC(=O)[C@H](Cc1c[nH]cn1)NC(=O)[C@H](CCCNC(=N)N)NC(=O)[C@H](CC(C)C)NC(=O)[C@H](Cc1ccccc1)NC(=O)[C@H](CC(N)=O)NC(=O)[C@H](C)NC(=O)[C@H](CC(C)C)NC(=O)[C@H](CCCNC(=N)N)NC(=O)[C@H](CCC(N)=O)NC(=O)[C@@H](NC(=O)[C@H](C)NC(=O)[C@@H]1CSSC[C@H](NC(=O)[C@H](CCCNC(=N)N)NC(=O)CNC(=O)CC[C@H](NC(=O)CCCCCCCCCCCCCCCCCCC(=O)O)C(=O)O)C(=O)N[C@@H](CC(N)=O)C(=O)N[C@@H]([C@@H](C)O)C(=O)N[C@@H](C)C(=O)N[C@@H]([C@@H](C)O)C(=O)N1)[C@@H](C)O)C(=O)N1CCC[C@H]1C(=O)N[C@@H](CO)C(=O)N[C@@H](CO)C(=O)N[C@H](C(=O)N[C@@H](CC(N)=O)C(=O)N[C@H](C(=O)NCC(=O)N[C@@H](CO)C(=O)N[C@@H](Cc1c[nH]cn1)C(=O)N[C@H](C(=O)N[C@@H](Cc1ccc(O)cc1)C(N)=O)[C@@H](C)O)C(C)C)[C@@H](C)O [Example 47] ({C20 diacid-γGlu}-GRCNTATCATQRLANFLRHSSPNFGAIPSSTNVGSHTY-NH2; disulfide 3-8) | 0.344 | 6.0 | 0.222 | 15.5 | 1.32 | 6.0 | 6.0 | 6.0 | – | – | –
3 | CC[C@H](C)[C@H](NC(=O)[C@H](C)NC(=O)CNC(=O)[C@H](Cc1ccccc1)NC(=O)[C@H](CC(N)=O)NC(=O)[C@@H]1CCCN1C(=O)[C@H](CO)NC(=O)[C@H](CO)NC(=O)[C@H](Cc1c[nH]cn1)NC(=O)[C@H](CCCNC(=N)N)NC(=O)[C@H](CC(C)C)NC(=O)[C@H](Cc1ccccc1)NC(=O)[C@H](CCC(=O)O)NC(=O)[C@H](C)NC(=O)[C@H](CC(C)C)NC(=O)[C@H](CCCNC(=N)N)NC(=O)[C@H](CCC(N)=O)NC(=O)[C@@H](NC(=O)[C@H](C)NC(=O)[C@@H]1CSSC[C@H](NC(=O)[C@@H](N)CCCCNC(=O)CC[C@H](NC(=O)CCCCCCCCCCCCCCCCCCC(=O)O)C(=O)O)C(=O)N[C@@H](CC(N)=O)C(=O)N[C@@H]([C@@H](C)O)C(=O)N[C@@H](C)C(=O)N[C@@H]([C@@H](C)O)C(=O)N1)[C@@H](C)O)C(=O)N1CCC[C@H]1C(=O)N[C@@H](CO)C(=O)N[C@@H](CO)C(=O)N[C@H](C(=O)N[C@@H](CC(N)=O)C(=O)N[C@H](C(=O)NCC(=O)N[C@@H](CO)C(=O)N[C@@H](Cc1c[nH]cn1)C(=O)N[C@H](C(=O)N[C@@H](Cc1ccc(O)cc1)C(N)=O)[C@@H](C)O)C(C)C)[C@@H](C)O [Example 128] (H-K([γGlu-C20 diacid])CNTATCATQRLAEFLRHSSPNFGAIPSSTNVGSHTY-NH2; disulfide 2-7) | 0.992 | – | 0.425 | 26.1 | 5.58 | – | – | – | – | – | –
4 | CC[C@H](C)[C@H](NC(=O)[C@H](C)NC(=O)CNC(=O)[C@H](Cc1ccccc1)NC(=O)[C@H](CC(N)=O)NC(=O)[C@@H]1CCCN1C(=O)[C@H](CO)NC(=O)[C@H](CO)NC(=O)[C@H](Cc1c[nH]cn1)NC(=O)[C@H](CCCNC(=N)N)NC(=O)[C@H](CC(C)C)NC(=O)[C@H](Cc1ccccc1)NC(=O)[C@H](CC(N)=O)NC(=O)[C@H](C)NC(=O)[C@H](CC(C)C)NC(=O)[C@H](CCCNC(=N)N)NC(=O)[C@H](CCC(N)=O)NC(=O)[C@@H](NC(=O)[C@H](C)NC(=O)[C@@H]1CSSC[C@H](NC(=O)[C@H](CCCCN)NC(=O)COCCOCCNC(=O)COCCOCCNC(=O)CC[C@H](NC(=O)CCCCCCCCCCCCCCCCCCC(=O)O)C(=O)O)C(=O)N[C@@H](CC(N)=O)C(=O)N[C@@H]([C@@H](C)O)C(=O)N[C@@H](C)C(=O)N[C@@H]([C@@H](C)O)C(=O)N1)[C@@H](C)O)C(=O)N1CCC[C@H]1C(=O)N[C@@H](CO)C(=O)N[C@@H](CO)C(=O)N[C@H](C(=O)N[C@@H](CC(N)=O)C(=O)N[C@H](C(=O)NCC(=O)N[C@@H](CO)C(=O)N[C@@H](CC(N)=O)C(=O)N[C@H](C(=O)N[C@@H](Cc1ccc(O)cc1)C(N)=O)[C@@H](C)O)C(C)C)[C@@H](C)O [Example 24] | 1.14 | – | 0.433 | 102 | 10 | – | – | – | 90.0 | 90.0 | 90.0
5 | CC[C@H](C)[C@H](NC(=O)[C@H](C)NC(=O)CNC(=O)[C@H](Cc1ccccc1)NC(=O)[C@H](CC(N)=O)NC(=O)[C@@H]1CCCN1C(=O)[C@H](CO)NC(=O)[C@H](CO)NC(=O)[C@H](Cc1c[nH]cn1)NC(=O)[C@H](CCCNC(=N)N)NC(=O)[C@H](CC(C)C)NC(=O)[C@H](Cc1ccccc1)NC(=O)[C@H](CC(N)=O)NC(=O)[C@H](C)NC(=O)[C@H](CC(C)C)NC(=O)[C@H](CCCNC(=N)N)NC(=O)[C@H](CCC(N)=O)NC(=O)[C@@H](NC(=O)[C@H](C)NC(=O)[C@@H]1CSSC[C@H](NC(=O)[C@H](CCCNC(=N)N)NC(=O)CNC(=O)CC[C@H](NC(=O)CCCCCCCCCCCCCCCCCCC(=O)O)C(=O)O)C(=O)N[C@@H](CC(N)=O)C(=O)N[C@@H]([C@@H](C)O)C(=O)N[C@@H](C)C(=O)N[C@@H]([C@@H](C)O)C(=O)N1)[C@@H](C)O)C(=O)N1CCC[C@H]1C(=O)N[C@@H](CO)C(=O)N[C@@H](CO)C(=O)N[C@H](C(=O)N[C@@H](CC(N)=O)C(=O)N[C@H](C(=O)NCC(=O)N[C@@H](CO)C(=O)N[C@@H](CC(N)=O)C(=O)N[C@H](C(=O)N[C@@H](Cc1ccc(O)cc1)C(N)=O)[C@@H](C)O)C(C)C)[C@@H](C)O [Example 46] ({C20 diacid-γGlu}-GRCNTATCATQRLANFLRHSSPNFGAIPSSTNVGSNTY-NH2; disulfide 3-8) | 0.195 | – | 0.088 | 9.53 | 0.899 | – | – | – | – | – | –
6 | CC[C@H](C)[C@H](NC(=O)[C@H](C)NC(=O)CNC(=O)[C@H](Cc1ccccc1)NC(=O)[C@H](CC(N)=O)NC(=O)[C@@H]1CCCN1C(=O)[C@H](CO)NC(=O)[C@H](CO)NC(=O)[C@H](Cc1c[nH]cn1)NC(=O)[C@H](CCCNC(=N)N)NC(=O)[C@H](CC(C)C)NC(=O)[C@H](Cc1ccccc1)NC(=O)[C@H](CCCNC(=N)N)NC(=O)[C@H](C)NC(=O)[C@H](CC(C)C)NC(=O)[C@H](CCCNC(=N)N)NC(=O)[C@H](CCC(N)=O)NC(=O)[C@@H](NC(=O)[C@H](C)NC(=O)[C@@H]1CSSC[C@H](NC(=O)[C@@H](N)CCCCNC(=O)CC[C@H](NC(=O)CCCCCCCCCCCCCCCCCCC(=O)O)C(=O)O)C(=O)N[C@@H](CC(N)=O)C(=O)N[C@@H]([C@@H](C)O)C(=O)N[C@@H](C)C(=O)N[C@@H]([C@@H](C)O)C(=O)N1)[C@@H](C)O)C(=O)N1CCC[C@H]1C(=O)N[C@@H](CO)C(=O)N[C@@H](CO)C(=O)N[C@H](C(=O)N[C@@H](CC(N)=O)C(=O)N[C@H](C(=O)NCC(=O)N[C@@H](CO)C(=O)N[C@@H](CC(N)=O)C(=O)N[C@H](C(=O)N[C@@H](Cc1ccc(O)cc1)C(N)=O)[C@@H](C)O)C(C)C)[C@@H](C)O [Example 83] | 0.939 | – | 0.405 | 137 | 16.8 | – | – | – | – | – | –

From patent US8575091B1, “Amylin analogues and pharmaceutical compositions thereof” (Novo Nordisk A/S, priority 2012, dated 2013)
